Source: the Kinase Knowledgebase extract (Sharma et al. 2016)
“And” between values parts separate entries of the source, which are not always exact repeats. Identical values can stand only once.

Biological target: EGFR (UniProt P00533)
Assay: Inhibition of EGFR Kinase Activity

Sequence of EGFR (P00533 whole entry, looked up): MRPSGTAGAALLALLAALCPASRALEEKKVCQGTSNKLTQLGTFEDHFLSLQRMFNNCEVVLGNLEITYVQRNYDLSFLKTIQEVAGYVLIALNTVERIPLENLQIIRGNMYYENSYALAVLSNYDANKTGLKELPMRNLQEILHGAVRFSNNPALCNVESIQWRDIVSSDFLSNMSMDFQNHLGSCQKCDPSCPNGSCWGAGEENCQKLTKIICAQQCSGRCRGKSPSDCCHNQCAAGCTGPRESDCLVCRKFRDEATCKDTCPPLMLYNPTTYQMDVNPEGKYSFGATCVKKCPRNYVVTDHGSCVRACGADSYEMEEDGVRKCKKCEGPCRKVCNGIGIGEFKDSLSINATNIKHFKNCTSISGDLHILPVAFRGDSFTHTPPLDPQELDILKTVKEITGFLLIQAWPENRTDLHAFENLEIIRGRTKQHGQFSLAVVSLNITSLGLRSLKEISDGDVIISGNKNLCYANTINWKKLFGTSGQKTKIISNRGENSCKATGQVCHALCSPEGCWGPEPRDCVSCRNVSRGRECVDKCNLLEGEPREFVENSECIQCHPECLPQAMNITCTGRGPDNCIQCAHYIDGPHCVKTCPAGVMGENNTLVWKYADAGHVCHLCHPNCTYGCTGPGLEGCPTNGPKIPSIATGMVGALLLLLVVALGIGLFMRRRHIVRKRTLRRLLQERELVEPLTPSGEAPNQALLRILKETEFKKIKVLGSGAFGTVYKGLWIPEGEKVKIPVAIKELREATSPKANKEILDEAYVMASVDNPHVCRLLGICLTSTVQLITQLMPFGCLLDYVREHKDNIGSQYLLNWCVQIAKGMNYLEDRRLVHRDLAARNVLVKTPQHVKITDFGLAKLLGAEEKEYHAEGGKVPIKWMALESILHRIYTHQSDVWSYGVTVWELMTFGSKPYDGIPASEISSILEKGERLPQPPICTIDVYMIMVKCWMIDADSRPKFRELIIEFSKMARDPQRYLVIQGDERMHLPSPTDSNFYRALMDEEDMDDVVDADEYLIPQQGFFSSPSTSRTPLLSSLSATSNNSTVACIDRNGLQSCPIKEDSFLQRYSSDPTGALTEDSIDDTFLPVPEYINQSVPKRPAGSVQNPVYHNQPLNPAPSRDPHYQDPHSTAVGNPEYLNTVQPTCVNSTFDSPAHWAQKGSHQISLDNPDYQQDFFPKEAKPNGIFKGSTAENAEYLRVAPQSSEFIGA

| SMILES | IC50 |
| --- | --- |
| CC(=O)Nc1ccc2c(Nc3cccc(Br)c3)ncnc2c1 | 40 nM |
| Brc1cccc(NC2=NC=NC3=CC=N(NCCCCN4CCOCC4)C=C23)c1 | 5.4 nM |
| COc1cc2ncnc(Nc3cccc(Br)c3)c2cc1N | 3.8 nM |
| CN(C)c1cccc(Nc2ncnc3cc(N)ncc23)c1 | 1810 nM |
| Brc1cccc(NC2=NC=NC3=CC=N(NCCN4CCOCC4)C=C23)c1 | 3.2 nM |
| OCN(CO)N1=CC=C2N=CN=C(Nc3cccc(Br)c3)C2=C1 | 14 nM |
| O=[N+]([O-])c1ccc2c(Nc3cccc(Br)c3)ncnc2c1 | 1000 nM |
| Cc1cccc(Nc2ncnc3cnc(N(C)C)nc23)c1 | 4 nM |
| Clc1cc2c(Nc3cccc(Br)c3)ncnc2cn1 | 40 nM |
| O=[N+]([O-])c1cc2c(Nc3cccc(Br)c3)ncnc2cc1Cl | 25 nM |
| CN(C)CCCCCNN1=CC=C2N=CN=C(Nc3cccc(Br)c3)C2=C1 | 8.5 nM |
| COc1cc2ncnc(Nc3ccc(Br)cc3)c2cc1OC | 0.97 nM |
| CN(C)CCCCNN1=CC=C2N=CN=C(Nc3cccc(C)c3)C2=C1 | 5.4 nM |
| Brc1cccc(Nc2ncnc3ccccc23)c1 | 27.5 nM |
| OC(=O)CCCNN1=CC=C2N=CN=C(Nc3cccc(Br)c3)C2=C1 | 0.2 nM |
| CCCOc1cc2ncnc(Nc3cccc(Br)c3)c2cc1OCCC | 0.17 nM |
| Nc1cc2ncnc(Nc3cccc(F)c3)c2cn1 | 850 nM |
| COc1cc2ncnc(Nc3cccc(C(F)(F)F)c3)c2cc1OC | 0.24 nM |
| Nc1ncc2ncnc(Nc3cccc(Br)c3)c2n1 | 1.5 nM |
| Brc1cccc(NC2=NC=NC3=CC=N(NCCCN4CCOCC4)C=C23)c1 | 1.9 nM |
| CN(CC(=O)O)N1=CC=C2N=CN=C(Nc3cccc(Br)c3)C2=C1 | 16 nM |
| CNc1ncc2ncnc(Nc3cccc(Br)c3)c2n1 | 0.7 nM |

| SMILES | IC50 |
| --- | --- |
| CN(C)c1ccc2c(Nc3cccc(Br)c3)ncnc2c1 | 11 nM |
| COc1cc2ncnc(Nc3ccccc3)c2cc1OC | 29 nM |
| COc1ccc2c(Nc3cccc(Br)c3)ncnc2n1 | 260 nM |
| Nc1cc2ncnc(Nc3cccc(O)c3)c2cn1 | 70 nM |
| CN1CCN(CCCNN2=CC=C3N=CN=C(Nc4cccc(C)c4)C3=C2)CC1 | 5.6 nM |
| Cc1cccc(Nc2ncnc3cnc(Cl)nc23)c1 | 380 nM |
| Nc1ccc2c(Nc3ccccc3)ncnc2c1 | 100 nM |
| OCCN(CCO)CCCNN1=CC=C2N=CN=C(Nc3cccc(Br)c3)C2=C1 | 1.2 nM |
| CN(C)c1ccc(Nc2ncnc3cc(N)ncc23)cc1 | 4890 nM |
| Nc1cc2ncnc(Nc3cccc(Br)c3)c2cn1 | 10 nM |
| CNc1cc2ncnc(Nc3cccc(Br)c3)c2cc1N | 0.69 nM |
| CN(C)CCN(C)N1=CC=C2N=CN=C(Nc3cccc(Br)c3)C2=C1 | 40 nM |
| Nc1cc2ncnc(Nc3ccc(C(F)(F)F)cc3)c2cn1 | 4780 nM |
| O=[N+]([O-])c1ccc2ncnc(Nc3cccc(Br)c3)c2c1 | 912 nM |
| NNN1=CC=C2N=CN=C(Nc3cccc(Br)c3)C2=C1 | 7.2 nM |
| Brc1cccc(Nc2ncnc3cnc(NCCn4ccnc4)nc23)c1 | 2.3 nM |
| Cc1cccc(NC2=NC=NC3=CC=N(NCCCn4ccnc4)C=C23)c1 | 3.5 nM |
| Nc1cc2c(Nc3cccc(Br)c3)ncnc2cc1Cl | 6.6 nM |
| COc1ccc2ncnc(Nc3cccc(Br)c3)c2c1 | 354 nM |
| Oc1cc2ncnc(Nc3cccc(Br)c3)c2cc1O | 0.17 nM |
| COc1cc2ncnc(Nc3cccc(I)c3)c2cc1OC | 0.89 nM |

Second part, the compound after the results:

| IC50 | SMILES |
| --- | --- |
| 2.6 nM | CN(CCO)N1=CC=C2N=CN=C(Nc3cccc(Br)c3)C2=C1 |
| 251 nM | Nc1cc2ncnc(Nc3ccccc3)c2cn1 |
| 0.9 nM | Brc1cccc(NC2=NC=NC3=CC=N(NCCc4c[nH]cn4)C=C23)c1 |
| 23.4 nM | Clc1cccc(Nc2ncnc3ccccc23)c1 |
| 85 nM | CN(C)c1ccc2ncnc(Nc3cccc(Br)c3)c2c1 |
| 160 nM | CN(C)c1cc2ncnc(Nc3cccc(Br)c3)c2cc1N |
| 5 nM | CN1CCN(CCCNN2=CC=C3N=CN=C(Nc4cccc(Br)c4)C3=C2)CC1 |
| 330 nM | CN(C)c1ccc2c(Nc3cccc(Br)c3)ncnc2n1 |
| 15 nM | COc1cc2ncnc(Nc3cccc(Br)c3)c2cc1[N+](=O)[O-] |
| 4.7 nM | Oc1ccc2c(Nc3cccc(Br)c3)ncnc2c1 |
| 0.5 nM | Brc1cccc(NC2=NC=NC3=CC=N(NCCCn4ccnc4)C=C23)c1 |
| 588 nM | FC(F)(F)c1cccc(Nc2ncnc3ccccc23)c1 |
| 56 nM | Fc1cccc(Nc2ncnc3ccccc23)c1 |
| 29 nM | CC(=O)Nc1cc2ncnc(Nc3cccc(Br)c3)c2cn1 |
| 9.7 nM | CN(C)c1ccc2ncnc(Nc3cccc(Br)c3)c2n1 |
| 5370 nM | Nc1cc2ncnc(Nc3ccccc3N)c2cn1 |
| 0.6 nM | OC(=O)CCNN1=CC=C2N=CN=C(Nc3cccc(Br)c3)C2=C1 |
| 39 nM | COc1cc2ncnc(Nc3cccc(Br)c3)c2cn1 |
| 0.8 nM | Brc1cccc(Nc2ncnc3cnc(NCCN4CCOCC4)nc23)c1 |
| 3710 nM | COc1ccccc1Nc1ncnc2cc(N)ncc12 |
| 549 nM | O=[N+]([O-])c1ccc2c(Nc3cccc(I)c3)ncnc2c1 |
| 83 nM | Clc1ncc2ncnc(Nc3cccc(Br)c3)c2n1 |
| 7.7 nM | Nc1ccc2ncnc(Nc3cccc(Br)c3)c2n1 |
| 2.6 nM | COc1cc2c(Nc3cccc(Br)c3)ncnc2cn1 |
| 575 nM | Nc1ccc2ncnc(Nc3cccc(C(F)(F)F)c3)c2c1 |
| 812 nM | O=[N+]([O-])c1ccc2c(Nc3cccc(Cl)c3)ncnc2c1 |
| 45 nM | CN(C)CCNN1=CC=C2N=CN=C(Nc3cccc(Br)c3)C2=C1 |
| 3.8 nM | COc1ncc2ncnc(Nc3cccc(Br)c3)c2n1 |

| IC50 | SMILES |
| --- | --- |
| 125 nM | Fc1cc2c(Nc3cccc(Br)c3)ncnc2cn1 |
| 3.2 nM | CN(CC(O)CO)N1=CC=C2N=CN=C(Nc3cccc(Br)c3)C2=C1 |
| 245 nM | Nc1cc2ncnc(Nc3ccccc3Br)c2cn1 |
| 0.12 nM | Nc1cc2ncnc(Nc3cccc(Br)c3)c2cc1N |
| 0.006 nM | CCOc1cc2ncnc(Nc3cccc(Br)c3)c2cc1OCC |
| 670 nM | COc1ccc(Nc2ncnc3cc(N)ncc23)cc1 |
| 8.9 nM | CN(C)CCCNN1=CC=C2N=CN=C(Nc3cccc(Br)c3)C2=C1 |
| 4 nM | CNc1ccc2ncnc(Nc3cccc(Br)c3)c2c1 |
| 13 nM | CNc1ncc2ncnc(Nc3ccccc3)c2n1 |
| 0.2 nM | OCCNN1=CC=C2N=CN=C(Nc3cccc(Br)c3)C2=C1 |
| 3 nM | Cc1cccc(Nc2ncnc3cnc(NCCc4c[nH]cn4)nc23)c1 |
| 912 nM | Cc1cccc(Nc2ncnc3ccccc23)c1 |
| 0.9 nM | OCC(O)CNN1=CC=C2N=CN=C(Nc3cccc(Br)c3)C2=C1 |
| 13 nM | Fc1cc2ncnc(Nc3cccc(Br)c3)c2cn1 |
| 12 nM | OCCN(CCO)N1=CC=C2N=CN=C(Nc3cccc(Br)c3)C2=C1 |
| 56 nM and 120 nM | COc1ccc2ncnc(Nc3ccccc3)c2c1 |
| 1.4 nM | OS(=O)(=O)CCNN1=CC=C2N=CN=C(Nc3cccc(Br)c3)C2=C1 |
| 776 nM | Nc1ccc2ncnc(Nc3ccccc3)c2c1 |
| 10 nM | COc1ccc2c(Nc3cccc(Br)c3)ncnc2c1 |
| 2.3 nM | Cc1cccc(Nc2ncnc3cnc(NCCN4CCOCC4)nc23)c1 |
| 69 nM | CNc1cc2ncnc(Nc3cccc(Br)c3)c2cc1[N+](=O)[O-] |
| 17 nM | Cc1cccc(Nc2ncnc3cnc(N)nc23)c1 |
| 3.1 nM | CNc1ccc2ncnc(Nc3cccc(Br)c3)c2n1 |
| 1.5 nM | OC(=O)CNN1=CC=C2N=CN=C(Nc3cccc(Br)c3)C2=C1 |
| 81 nM | Ic1cccc(Nc2ncnc3ccccc23)c1 |
| 0.2 nM | Brc1cccc(Nc2ncnc3cnc(NCCc4c[nH]cn4)nc23)c1 |
| 7.4 nM | CN(C)CCCCNN1=CC=C2N=CN=C(Nc3cccc(Br)c3)C2=C1 |
